Results published in patent US6737383B1, “Herbicidal oxadiazolidines” (priority 1999, dated 2004).

Columns and labels:
morningglory = assay: Test B pre/postemergence morningglory; format: in vivo, Ipomoea hederacea
Method in brief: (§1)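 Herbicidal effect was estimated by eye on a ten-point control scale after plants spent twelve to sixteen days in a greenhouse following soil or foliar treatment. Foliar sprays targeted plants at one to four leaves; all doses were formulated in a non-phytotoxic solvent with surfactant.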

bedstraw = assay: Test B pre/postemergence bedstraw; format: in vivo, Galium aparine
Method in brief: as §1

velvetleaf = assay: Test B pre/postemergence velvetleaf; format: in vivo, Abutilon theophrasti
Method in brief: as §1

corn = assay: Test B pre/postemergence corn; format: in vivo, Zea mays
Method in brief: as §1

bamyardgrass = assay: Test B flood test barnyardgrass; format: in vivo, Echinochloa crus-galli
Method in brief: (§2)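 Each value is a visual injury score relative to controls, with 10 meaning complete control and 0 no effect. Evaluation took place twelve to sixteen days after the 2-leaf-stage plants were treated and kept in the greenhouse.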

rape = assay: Test B pre/postemergence rape; format: in vivo, Brassica napus
Method in brief: as §1

sugar beet = assay: Test B pre/postemergence sugar beet; format: in vivo, Beta vulgaris
Method in brief: as §1

giant foxtail = assay: Test B pre/postemergence giant foxtail; format: in vivo, Setaria faberii
Method in brief: as §1

cocklebur = assay: Test B pre/postemergence cocklebur; format: in vivo, Xanthium strumarium
Method in brief: as §1

surinam grass = assay: Test B pre/postemergence surinam grass; format: in vivo, Brachiaria decumbens
Method in brief: as §1

rice = assay: Test B flood test rice; format: in vivo, Oryza sativa
Method in brief: as §2

blackgrass = assay: Test B pre/postemergence blackgrass; format: in vivo, Alopecurus myosuroides
Method in brief: as §1

duck salad = assay: Test B flood test duck salad; format: in vivo, Heteranthera limosa
Method in brief: as §2

purple nutsedge = assay: Test B pre/postemergence purple nutsedge; format: in vivo, Cyperus rotundus
Method in brief: as §1

pigweed = assay: Test B pre/postemergence pigweed; format: in vivo, Amaranthus retroflexus
Method in brief: as §1

[1] = Preemergence, Rate 62 g/ha, scale of 0 to 10 where 0 is no effect and 10 is complete control
[2] = Preemergence, Rate 250 g/ha, scale of 0 to 10 where 0 is no effect and 10 is complete control
[3] = Preemergence, Rate 500 g/ha, scale of 0 to 10 where 0 is no effect and 10 is complete control
[4] = Rate 62 g/ha, Postemergence, scale of 0 to 10 where 0 is no effect and 10 is complete control
[5] = Rate 125 g/ha, Postemergence, scale 0 to 10
[6] = Rate 125 g/ha, Preemergence, scale of 0 to 10 where 0 is no effect and 10 is complete control
[7] = Rate 500 g/ha, Postemergence, scale 0 to 10
[8] = Rate 62 g/ha, headed Pre-emergence (flood test species), scale 0 to 10 (0 no effect, 10 complete control)
[9] = Rate 125 g/ha, Pre-emergence, flood test species, scale 0 to 10 where 0 is no effect and 10 is complete control
[10] = Rate 250 g/ha, Pre-emergence, flood-test species, scale 0 to 10, 0 is no effect, 10 is complete control
[11] = Rate 500 g/ha, Pre-emergence, flood test species, scale 0 to 10 (0 no effect, 10 complete control)

C#CCn1c(=O)on(C(=O)N(c2ccc(F)cc2)C(C)C)c1=O [Compound 212]
Morningglory plant response rating (morningglory; [1]): 0 | Morningglory plant response rating (morningglory; [2]): 0 | Plant response rating, Morningglory (morningglory; [3]): 0 | Morningglory plant response rating (morningglory; [4]): 2 | Morningglory plant response rating (morningglory; [5]): 3 | Morningglory plant response rating (morningglory; [6]): 0 | Plant response rating (0 to 10; 0 is no effect, 10 is complete control), Morningglory (morningglory; Rate 250 g/ha, Postemergence): 4 | Morningglory plant response rating (morningglory; [7]): 8 | Bedstraw plant response rating (bedstraw; [1]): 0 | Bedstraw plant response rating (bedstraw; [2]): 0 | Plant response rating, Bedstraw (bedstraw; [3]): 10 | Bedstraw plant response rating (bedstraw; [4]): 0 | Bedstraw plant response rating (bedstraw; [5]): 0 | Bedstraw plant response rating (bedstraw; [6]): 0 | Plant response rating (0 to 10; 0 is no effect, 10 is complete control), Bedstraw (bedstraw; Rate 250 g/ha, Postemergence): 2 | Bedstraw plant response rating (bedstraw; [7]): 7 | Velvetleaf plant response rating (velvetleaf; [1]): 2 | Velvetleaf plant response rating (velvetleaf; [2]): 5 | Plant response rating, Velvetleaf (velvetleaf; [3]): 5 | Velvetleaf plant response rating (velvetleaf; [4]): 3 | Velvetleaf plant response rating (velvetleaf; [5]): 4 | Plant response rating (0 to 10; 0 is no effect, 10 is complete control), Velvetleaf (velvetleaf; Rate 250 g/ha, Postemergence): 5 | Corn plant response rating (corn; [1]): 0 | Corn plant response rating (corn; [2]): 0 | Plant response rating, Corn (corn; [3]): 0 | Corn plant response rating (corn; [4]): 0 | Corn plant response rating (corn; [5]): 0 | Corn plant response rating (corn; [6]): 0 | Plant response rating (0 to 10; 0 is no effect, 10 is complete control), Corn (corn; Rate 250 g/ha, Postemergence): 0 | Corn plant response rating (corn; [7]): 0 | Barnyardgrass plant response rating (bamyardgrass; [8]): 0 | Barnyardgrass plant response rating (bamyardgrass; [9]): 0 | Barnyardgrass plant response rating (bamyardgrass; [10]): 0 | Barnyardgrass plant response rating (bamyardgrass; [11]): 0 | Rape plant response rating (rape; [1]): 0 | Rape plant response rating (rape; [2]): 6 | Plant response rating, Rape (rape; [3]): 8 | Rape plant response rating (rape; [4]): 0 | Rape plant response rating (rape; [5]): 0 | Rape plant response rating (rape; [6]): 0 | Plant response rating (0 to 10; 0 is no effect, 10 is complete control), Rape (rape; Rate 250 g/ha, Postemergence): 0 | Rape plant response rating (rape; [7]): 3 | Sugarbeets plant response rating (sugar beet; [1]): 0 | Sugarbeets plant response rating (sugar beet; [2]): 5 | Plant response rating, Sugarbeets (sugar beet; [3]): 8 | Sugarbeets plant response rating (sugar beet; [4]): 0 | Sugarbeets plant response rating (sugar beet; [5]): 0 | Sugarbeets plant response rating (sugar beet; [6]): 5 | Plant response rating (0 to 10; 0 is no effect, 10 is complete control), Sugarbeets (sugar beet; Rate 250 g/ha, Postemergence): 0 | Sugarbeets plant response rating (sugar beet; [7]): 5 | Giant foxtail plant response rating (giant foxtail; [1]): 2 | Giant foxtail plant response rating (giant foxtail; [2]): 9 | Plant response rating, Giant foxtail (giant foxtail; [3]): 10 | Giant foxtail plant response rating (giant foxtail; [4]): 4 | Giant foxtail plant response rating (giant foxtail; [5]): 6 | Giant foxtail plant response rating (giant foxtail; [6]): 4 | Plant response rating (0 to 10; 0 is no effect, 10 is complete control), Giant foxtail (giant foxtail; Rate 250 g/ha, Postemergence): 6 | Giant foxtail plant response rating (giant foxtail; [7]): 9 | Cocklebur plant response rating (cocklebur; [1]): 0 | Cocklebur plant response rating (cocklebur; [2]): 0 | Plant response rating, Cocklebur (cocklebur; [3]): 0 | Cocklebur plant response rating (cocklebur; [4]): 2 | Cocklebur plant response rating (cocklebur; [5]): 2 | Plant response rating (0 to 10; 0 is no effect, 10 is complete control), Cocklebur (cocklebur; Rate 250 g/ha, Postemergence): 2 | Cocklebur plant response rating (cocklebur; [7]): 5 | B. signalgrass plant response rating (surinam grass; [1]): 0 | B. signalgrass plant response rating (surinam grass; Preemergence, Rate 250 g/ha, scale 0 to 10, 0 is no effect, 10 is complete control): 5 | Plant response rating, B. signalgrass (surinam grass; [3]): 5 | B. signalgrass plant response rating (surinam grass; [4]): 2 | B. signalgrass plant response rating (surinam grass; Rate 125 g/ha, Postemergence, scale 0 (no effect) to 10 (complete control)): 4 | B. signalgrass plant response rating (surinam grass; [6]): 1 | Plant response rating (0 to 10; 0 is no effect, 10 is complete control), B. signalgrass (surinam grass; Rate 250 g/ha, Postemergence): 7 | B. signalgrass plant response rating (surinam grass; Rate 500 g/ha, Postemergence, scale 0 to 10, 0 no effect, 10 complete control): 7 | Rice plant response rating (rice; [8]): 0 | Rice plant response rating (rice; [9]): 0 | Rice plant response rating (rice; [10]): 0 | Rice plant response rating (rice; [11]): 0 | Blackgrass plant response rating (blackgrass; [1]): 4 | Blackgrass plant response rating (blackgrass; [2]): 7 | Plant response rating, Blackgrass (blackgrass; [3]): 9 | Blackgrass plant response rating (blackgrass; [4]): 6 | Blackgrass plant response rating (blackgrass; [5]): 6 | Blackgrass plant response rating (blackgrass; [6]): 4 | Plant response rating (0 to 10; 0 is no effect, 10 is complete control), Blackgrass (blackgrass; Rate 250 g/ha, Postemergence): 6 | Blackgrass plant response rating (blackgrass; [7]): 7 | Ducksalad plant response rating (duck salad; [8]): 0 | Ducksalad plant response rating (duck salad; [9]): 0 | Ducksalad plant response rating (duck salad; [10]): 0 | Ducksalad plant response rating (duck salad; [11]): 2 | Nutsedge plant response rating (purple nutsedge; [1]): 0 | Nutsedge plant response rating (purple nutsedge; [2]): 0 | Plant response rating, Nutsedge (purple nutsedge; [3]): 0 | Nutsedge plant response rating (purple nutsedge; [4]): 0 | Nutsedge plant response rating (purple nutsedge; [5]): 0 | Nutsedge plant response rating (purple nutsedge; [6]): 0 | Plant response rating (0 to 10; 0 is no effect, 10 is complete control), Nutsedge (purple nutsedge; Rate 250 g/ha, Postemergence): 0 | Nutsedge plant response rating (purple nutsedge; [7]): 0 | Redroot pigweed plant response rating (pigweed; [1]): 9 | Redroot pigweed plant response rating (pigweed; [2]): 10 | Plant response rating, Redroot pigweed (pigweed; [3]): 10 | Redroot pigweed plant response rating (pigweed; [4]): 0 | Redroot pigweed plant response rating (pigweed; [5]): 5 | Redroot pigweed plant response rating (pigweed; [6]): 9 | Redroot pigweed plant response rating (pigweed; [7]): 7
